Results: patent publication US12599578B2, “Compositions comprising enzyme-cleavable prodrugs and controlled release nafamostat and methods of use thereof” (Ensysce Biosciences Inc., priority 2021, dated 2026)
Read-outs that look alike come from different tables or passages of the source.

What was measured:
[1] = doses of up to 200 mg KC-8 (80 mg oxycodone); cited from earlier work
[2] = Plasma oxycodone pharmacokinetics after oral KC-8 with or without nafamostat in rats; format: in vivo; conditions: nafamostat co-administered with an oxycodone or hydromorphone derivative
Method: The drug nafamostat mesylate was added to the formulations containing the KC-8 oxycodone-derivative. In the examples described herein, the terms “nafamostat mesylate” and “nafamostat” are used interchangeably.
Formulations containing both KC-8 and optionally nafamostat were administered orally to rats. The KC-8 dose was 5 mg/kg and the nafamostat concentration was 0, 0.1, 0.5, or 1 mg/kg. Plasma concentrations of active oxycodone were measured at various time intervals over 24 hours after administration.
In particular, the rats received 50 mg/kg of KC-8 and 0, 1, 5, or 10 mg/kg of nafamostat. With zero nafamostat, blood plasma concentration experienced a maximum of about 22 ng/ml at about 2 hours, wherein the concentration rapidly descended thereafter. In alignment with the data of FIG. 2, higher concentrations of nafamostat reduced the peak concentration to about 3 ng/ml at about 8 hours.

[3] = Blood hydromorphone after 1, 3, 6 or 10 pills of PF329 with or without nafamostat in rats; format: in vivo; conditions: rats, 1, 3, 6 or 10 pills of PF329 containing nafamostat (FIG. 5)
Description: The rat experiments were repeated with a derivative of hydromorphone (referred to herein as PF329), which is another known pain medication. FIGS. 4 and 5 show the blood concentration of active hydromorphone (HM) after the administration of 1, 3, 6, or 10 pills, either without or with nafamostat.

[4] = 200 mg nafamostat; cited from earlier work

Compound	safety and tolerability [1]	effect on maximum concentration of active drug in blood plasma [2]	change of hydromorphone blood concentration on administering more pills [3]	safety and tolerability [4]
COc1ccc2c3c1O[C@H]1C(OC(=O)N(C)CC(C)(C)CNC(=O)[C@H](CCCNC(=N)N)NC(=O)CNC(=O)CC(=O)O)=CC[C@@]4(O)[C@@H](C2)N(C)CC[C@]314 [KC-8, N-1-[3-(oxycodone-6-enol-carbonyl-methyl-amino)-2,2-dimethyl-propylamine]-arginine-glycine-malonic acid]	safe and well tolerated	–	–	–
N=C(N)c1ccc2cc(OC(=O)c3ccc(N=C(N)N)cc3)ccc2c1 [nafamostat, 6-carbamimidoylnaphthalen-2-yl 4-(diaminomethyleneamino)benzoate]	–	significantly reduced the maximum concentration of active drug in blood plasma	little increase	safe and well tolerated
